# Laboratory results as given in paper PMC9841531, “Indole Derivatives as New Structural Class of Potent and Antiproliferative Inhibitors of Monocarboxylate Transporter 1 (MCT1; SLC16A1)” (Journal of Medicinal Chemistry, 2022).
# Assays:
# [1] = test system: MCT1-expressing A-549 cells; experiment: MTT-based efficacy assay, 33 in combination with test compound, A-549; format: cell-based; conditions: Homo sapiens, A549; 33 alone, 72 h; read-out: A-549 cell toxicity 33 + 0 nM test cmpd. GI50 ± SEM
# Description: MCT1 inhibition anticipates challenging cancer cell energy supply and, thus, increases the efficacy of anticancer agents.
# For this purpose, 10 μL of compounds 24 or 30 (50 nM, 100 nM, or 500 nM) was transferred onto a colorless flat-bottom 96-well microplate and complemented with 180 μL of a cell suspension containing either approximately 5,000 A-549 cells. A dilution series of compound 33 at concentrations between 50 nM and 50 μM was generated, and 10 μL of each concentration was transferred onto the plate. The observed effects of compounds 24 and 30 were compared to the effect of compound 33 alone on A-549. The plates were incubated for 72 h at 37 °C and a 5% CO2-humidified atmosphere, before subsequent processing with the regular MTT assay as described above.[43]
# A-549 cells = experiment: cell cycle distribution analysis, PI flow cytometry; format: cell-based; conditions: 5 μM, 24 h
# Description: The antineoplastic agent 33 (5 μM) was used as a reference. […] Compound 24 caused a disruption of the cell cycle of A-549 cancer cells, indicated by a shift from the predominant G0/G1 phase (Figure 8A) to the apoptotic sub-G1 phase as well as the G2/M phase (Figure 8B). A similar G2/M arrest could be observed for reference compound 33 (Figure 8C); however, MCT1 inhibitor 24 led to a larger fraction of cells into the sub-G1 phase, indicating induced apoptosis. This experiment discovered that compound 24 inhibits cell proliferation, causing cell cycle arrest and, eventually, apoptosis. To confirm our findings, we conducted an apoptosis assay using compound 24.
# A standard PI staining procedure was used as described earlier[44]−[46] to determine the effect of compounds 24 and 33 on cell cycle progression, followed by flow cytometry analysis (FACS Aria SORP and FACS Aria Fusion, BD Biosciences, Franklin Lakes, NJ). In brief, A-549 cells were seeded onto a 6-well plate (250,000 cells/well) and incubated for 24 h at 37 °C under a 5% CO2-humidified atmosphere before being observed under a microscope. The cells were treated with compound 24 (5 μM) or 33 (5 μM) and further incubated for 24 h at 37 °C under a 5% CO2-humidified atmosphere. Then, the cells were harvested and washed twice with cold PBS (Genetix Biotech Asia, New Delhi, India) before being fixed overnight in ice-cold 70% (v/v) ethanol at 4 °C. The cells were again washed two times with PBS and subsequently resuspended with RNase (100 μg/mL; HiMedia, Mumbai, India) and their DNA was stained with PI (40 μg/mL; Sigma-Aldrich, Mumbai, India) before being incubated in the dark for 10 min. The DNA content was measured at the Indian Institute of Technology Bombay (IITB, Mumbai, India) by applying flow cytometry.
# [2] = test system: ABCB1-expressing A2780/ADR cells; experiment: MTT-based efficacy (MDR-reversal) assay, 33 in combination with test compound, A2780/ADR; format: cell-based; conditions: A2780 ADR; 33 alone, 72 h; read-out: A2780/ADR cell toxicity 33 + 0.0 μM cmpd. GI50 ± SEM
# Description: (§1) This sensitization is indicated by a shift of the concentration-effect curve of compound 33 from the right (=high concentrations of 33 needed to induce A2780/ADR cell death) to the left (=lower concentrations of 33 needed to induce A2780/ADR cell death). The concentration-effect curve of compound 33 in combination with 5 μM of either compound 24 or 30 resembles the concentration-effect curve of the sensitive cell line A2780. […] Thus, their potentiating effect with respect to the antiproliferative agent 33 against ABCB1-expressing A2780/ADR cells is due to the inhibition of ABCB1. Therefore, compounds 24 and 30 were dually effective against MCT1- and ABCB1-expressing cells (Table 5).
# (§2) An MDR-reversal assay[2],[55]−[59] was used to investigate the ability to reverse ABCB1-mediated MDR in A2780/ADR cells toward the cytotoxic ABCB1 substrate 33. […] A dilution series of 33 at concentrations between 0.1 μM and 100 μM was generated, and 20 μL of each concentration was transferred onto the plates (final concentration: 0.01–10 μM). The plates were incubated for 72 h at 37 °C and a 5% CO2-humidified atmosphere, before subsequent processing with the regular MTT assay as described above. The observed effects of compounds 24 and 30 were compared to the effect of 33 alone on A2780/ADR cells as well as its sensitive counterpart A2780 (∼10,000 cells/well).
# A2780 cells = experiment: MTT-based cell toxicity of 33 on sensitive A2780 cells; conditions: Homo sapiens, 33 alone, 72 h, read-out: A2780 cell toxicity 33 + 0.0 μM cmpd. GI50 ± SEM
# Description: as §1, §2
structure (smiles),measurement,setting,value
"COc1cccc2c1C(=O)c1c(O)c3c(c(O)c1C2=O)C[C@@](O)(C(=O)CO)C[C@@H]3O[C@H]1C[C@H](N)[C@H](O)[C@H](C)O1 [Compound 33, doxorubicin, reference compound]",GI50,[1],47.6 ± 0.7 nM
same,cells in G0/G1 phase,A-549 cells,41.1%
same,cells in G2/M phase,A-549 cells,26.2%
same,cells in S phase,A-549 cells,27.4%
same,cells in Sub-G1 phase,A-549 cells,4.00%
same,GI50,[2],802 ± 81 nM
same,GI50,A2780 cells,19.4 ± 1.7 nM
